Data taken from patent publication USRE42014E1, “Pharmaceutical compositions” (Novartis AG, priority 1996, dated 2010).

Experiments:
[1] = Solubilization of active agent in fat emulsions: filtration through 0.2 micron Nuclepore filter, retained drug determined gravimetrically and/or by HPLC
Protocol: (§1) The solubilization efficacy was determined by filtering the drug loaded fat emulsion through a 0.2 micron Nuclepore filter. Drug compound which is not solubilized was held back by the filter and determined gravimetrically and/or by HPLC measurements.
Further sodium oleate was used, instead of POPG.Na.
Propylene glycol was then used to replace a part of the ethanol content.

[2] = per 100 ml of a 10% fat emulsion
Protocol: as §1

C/C=C/C[C@@H](C)C(=O)[C@H]1C(=O)N[C@@H](C(C)C)C(=O)N(C)CC(=O)N(C)[C@@H](CC(C)C)C(=O)N[C@@H](C(C)C)C(=O)N(C)[C@@H](CC(C)C)C(=O)N[C@@H](C)C(=O)N[C@H](C)C(=O)N(C)[C@@H](CC(C)C)C(=O)N(C)[C@@H](CC(C)C)C(=O)N(C)[C@@H](C(C)C)C(=O)N1C [PSC 833, [3′-desoxy-3′-oxo-MeBmt]^1-[Val]^2-Ciclosporin]
PSC 833 solubilized ([1]; plain PSC 833 solution in ethanol injected into a fat emulsion, after 30 minutes, no stabiliser): 87% | PSC 833 retained on the filter ([1]; with POPG.Na or sodium oleate, after 5 minutes, determined by HPLC): less than 0.1% | PSC 833 solubilized by 100 ml of a 10% fat emulsion [2]: up to 2 gram
